Measured values published in US20100292209A1, “METHODS FOR IDENTIFYING COMPOUNDS THAT MODULATE NEUROTROPHIC FACTOR SIGNALING” (Massachusetts Institute of Technology, priority 2007, published 2010).
pIC50: −log10 of the molar value.

Experiments:
PC12-ErbB4-GFP cells [1] = assay: Nrg1-induced neurite outgrowth, live-cell imaging; assay type: cell-based
Procedure: (§1) Average outgrowth per cell was measured after 2 days incubation. C. Cells were pretreated with Iressa or Tarceva at various concentrations for 30 minutes followed by 20 ng/ml Nrg1. Mean outgrowth per cell was measured after 2 days incubation. D. Cells were pretreated with 2 μM Iressa or DMSO for 30 minutes followed by 20 ng/ml Nrg1 or NGF and lysed after 5 minutes. Cell lysates were immunoprecipitated by anti-ErbB4 antibody followed by western blotting with antibodies against phospho-tyrosine and ErbB4. Phosphor-ERK1/2 and total Erk2 levels were determined by direct western blotting with cell lysates.
C. […] Mean outgrowth per cell was measured after 2 days incubation.

neurotrophin-3 = settings: cited from earlier work
NGF-TrkA signaling = settings: compared with K252a; cited from earlier work
ErbB4 [2] = target: T1, ErbB4 (Homo sapiens, UniProt Q15303); assay: Iressa-conjugated agarose (iTrap) affinity capture of ErbB4 from cell lysate; assay type: binding; settings: 10 uM free Iressa
T1 construct: expressed in transfected cells
Procedure: PC12-ErbB4-GFP cells were lysed with modified RIPA buffer at 4° C. for 10 min and the cell lysate was cleared by centrifugation. The cleared lysate (0.40 ml) was tumbled with Iressa (10 μM) or DMSO (1:1000 v/v) as indicated at 4° C. for 30 min before addition of the iTrap resin (10 μA). The resulting mixture was tumbled at 4° C. for 12 hours. The suspension was centrifuged and the supernatant was discarded. The resin was washed with the above modified RIPA buffer (1.0 ml) for four times. The captured proteins were separated by SDS-PAGE. The Western immunoblotting experiment was then performed using anti-ErbB4 antibody.
Agarose beads (iTrap) conjugated with a derivative of Iressa (Iressa—2, FIG. 6A) were used to examine the affinity of Iressa against ErbB4.

ErbB4 [3] = target: T1, ErbB4; assay: Nrg1-induced ErbB4 phosphorylation (immunoprecipitation, western blot); assay type: cell-based; settings: 1 μM Iressa, 20 ng/ml Nrg1, lysed after 5 minutes
Procedure: as §1, with “Cells were pretreated with 2 μM Iressa or DMSO for 30 minutes followed by 20 ng/ml Nrg1 or NGF and lysed after 5 minutes.” left out
(§2) Cells were lysed with RIPA buffer (Pierce Technology, Rockford, Ill.) containing 1 tablet/10 ml protease inhibitor cocktail Complete Mini (Roche Applied Science). For phosphoprotein analysis, Halt Phosphatase Inhibitor Cocktail (Pierce Technology) was also included. Cell lysate was cleared by centrifuge at 15,000 rpm for 30 min followed by addition of LDS sample buffer (Invitrogen) for direct analysis or immunoprecipitated with specific primary antibodies and Protein A/G agarose (Pierce Technology) following the manufacturer's protocol. […] The membrane was probed with specific primary antibodies according to specified recipes provided by their vendors and then horse radish peroxidase-conjugated secondary antibody to mouse or rabbit IgG (GE Healthcare, Piscataway, N.J.). Target protein bands were detected with SuperSignal West Femto Max Sensitivity Substrate (Pierce Technology).

ERK/MAPK = ERK/MAPK phosphorylation (western blot of cell lysates); assay type: cell-based
Procedure: as §1, with “Cells were pretreated with 2 μM Iressa or DMSO for 30 minutes followed by 20 ng/ml Nrg1 or NGF and lysed after 5 minutes.” left out
as §2

PC12-ErbB4-GFP cells [4] = assay: NGF-induced neurite outgrowth, live-cell imaging; assay type: cell-based
[5] = tested on: cultured hippocampal neurons; settings: cited from earlier work
PFC pyramidal neuron = PFC pyramidal neuron current assay; cited from earlier work
ErbB4 [6] = assay: ErbB4 level (western blot, immunofluorescence staining); assay type: cell-based, human; settings: 50 nM, 12 hrs treatment, PC12-ErbB4
Procedure: (§3) A. Cells were treated without or with K252a (50 nM), K252a-Me (50 nM) for 30 min followed by treatment with or without 20 ng/mL Nrg1. Cells were lysed 12 hrs after Nrg1 treatment and analyzed by Western blot with anti-ErbB4 antibody. The bands that correspond to ErbB4 are indicated. B. Cells were treated without or with K252a (50 nM), K252a-Me (50 nM) for 12 hrs then fixed and immunostained with anti-ErbB4 and Alexa594 conjugated secondary antibody. GFP and Alexa594 fluorescent cell images were taken using a 20× objective. C. Cells were treated without or with K252a (50 nM) for 12 hrs followed by treatment of 20 ng/mL Alexa594-Nrg1 for 30 mins and fixed. GFP and Alexa594 fluorescent cell images were taken using a 40× objective.
(§4) This phenomenon, confirmed by immunofluorescence staining for ErbB4 in PC12-ErbB4 (FIG. 7B), might explain why K252a potentiate Nrg1-induced neurite outgrowth. To verify that increased level of ErbB4 does contribute to neuregulin signaling, we examined the Nrg1 uptake with Alexa594-labeled Nrg1 (FIG. 7C). Cells were treated with K252a for 12 hrs followed by Alexa594-labeled Nrg1 for 30 min.

PC12-ErbB4 = assay: Uptake of Alexa594-labeled Nrg1; assay type: cell-based; settings: K252a 50 nM 12 hrs, then Alexa594-labeled Nrg1 30 min, compared to DMSO-treated cells
Procedure: as §3, §4

T1 sequence (Q15303 26-1292 isoform Q15303-3 limits assumed): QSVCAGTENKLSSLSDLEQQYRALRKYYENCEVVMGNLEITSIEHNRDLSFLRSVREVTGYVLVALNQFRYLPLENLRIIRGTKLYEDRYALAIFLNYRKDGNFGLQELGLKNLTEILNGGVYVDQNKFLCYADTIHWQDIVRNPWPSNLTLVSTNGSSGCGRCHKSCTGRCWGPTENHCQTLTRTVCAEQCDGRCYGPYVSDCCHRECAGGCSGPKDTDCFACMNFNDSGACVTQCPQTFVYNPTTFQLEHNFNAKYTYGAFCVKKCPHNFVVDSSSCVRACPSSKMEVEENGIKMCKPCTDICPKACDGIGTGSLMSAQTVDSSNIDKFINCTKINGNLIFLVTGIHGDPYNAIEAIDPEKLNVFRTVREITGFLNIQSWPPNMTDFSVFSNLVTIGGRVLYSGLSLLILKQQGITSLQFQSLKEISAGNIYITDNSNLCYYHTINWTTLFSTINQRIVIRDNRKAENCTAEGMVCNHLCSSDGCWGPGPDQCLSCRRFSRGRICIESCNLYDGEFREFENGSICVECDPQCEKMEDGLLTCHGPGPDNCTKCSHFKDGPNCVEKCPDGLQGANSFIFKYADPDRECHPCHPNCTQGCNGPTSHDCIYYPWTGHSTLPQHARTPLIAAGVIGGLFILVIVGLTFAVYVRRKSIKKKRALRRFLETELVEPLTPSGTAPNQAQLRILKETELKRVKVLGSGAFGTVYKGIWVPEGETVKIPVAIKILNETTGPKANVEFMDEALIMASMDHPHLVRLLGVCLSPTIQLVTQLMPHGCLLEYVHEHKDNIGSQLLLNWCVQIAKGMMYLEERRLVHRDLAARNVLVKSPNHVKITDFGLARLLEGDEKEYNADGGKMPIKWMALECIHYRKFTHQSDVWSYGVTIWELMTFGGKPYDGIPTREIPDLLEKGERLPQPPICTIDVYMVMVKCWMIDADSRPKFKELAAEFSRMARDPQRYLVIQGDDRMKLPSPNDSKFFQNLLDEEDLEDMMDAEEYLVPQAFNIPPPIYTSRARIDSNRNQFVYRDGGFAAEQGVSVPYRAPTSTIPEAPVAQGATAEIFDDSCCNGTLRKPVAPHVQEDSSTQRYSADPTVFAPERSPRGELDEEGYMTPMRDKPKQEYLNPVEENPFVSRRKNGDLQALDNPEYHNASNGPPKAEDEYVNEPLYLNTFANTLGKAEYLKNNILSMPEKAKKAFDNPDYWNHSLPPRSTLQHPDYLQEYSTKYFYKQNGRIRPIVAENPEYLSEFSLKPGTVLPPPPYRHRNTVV

## O=C1NCc2c1c1c3ccccc3[nH]c1c1[nH]c3ccccc3c21 [K252c]
PC12-ErbB4-GFP cells [1]; single dose (10 micromolar), 48 hours
  effect on Nrg1-induced neurite outgrowth in kinase inhibitor screening: potentiates

## CC12OC(CC1(O)C(=O)O)n1c3ccccc3c3c4c(c5c6ccccc6n2c5c31)C(=O)NC4 (centres unmarked) [K252b]
neurotrophin-3
  trophic action of neurotrophin-3: potentiates
NGF-TrkA signaling
  potency on inhibiting NGF-TrkA signaling: much lower potency

## COc1cc2ncnc(Nc3ccc(F)c(Cl)c3)c2cc1OCCCN1CCOCC1 [Iressa, N-(3-chloro-4-fluoro-phenyl)-7-methoxy-6-(3-morpholin-4-ylpropoxy)quinazolin-4-amine]
ErbB4 [2]
  precipitation of ErbB4 by iTrap in competition with free Iressa: attenuated
ErbB4 [3]
  phosphorylation of ErbB4 receptors induced by Nrg1: inhibited
ERK/MAPK; 20 ng/ml Nrg1
  subsequent phosphorylation of ERK/MAPK (Nrg1-induced): diminished
ERK/MAPK; Iressa, 20 ng/ml NGF
  NGF-induced MAPK activation: did not affect

## NGF: Nerve Growth Factor, neurotrophin
PC12-ErbB4-GFP cells [4]; 20 ng/ml, in the presence of DMSO, 48 hours
  mean neurite length induced by NGF: 8.7±1.5 μm

## C#Cc1cccc(Nc2ncnc3cc(OCCOC)c(OCCOC)cc23)c1 [Tarceva, N-(3-ethynylphenyl)-6,7-bis(2-methoxyethoxy)quinazolin-4-amine]
PC12-ErbB4-GFP cells [1]; read-out: IC50 of inhibition of Nrg1-induced neurite outgrowth
  pIC50: 6.30
PC12-ErbB4-GFP cells [4]; concentration range of 100 nM˜1 (data not shown)
  inhibition of NGF-induced neurite outgrowth: not inhibited

## COc1cc2ncnc(Nc3cccc(Cl)c3)c2cc1OC [AG1478, 4-(3-Chloroanilino-6,7-dimethoxy)-quinazoline]
PC12-ErbB4-GFP cells [1]; 1 μM AG1478, 20 ng/ml Nrg1, 2 days
  effect on Nrg1-induced neurite outgrowth: can specifically inhibit

## CNc1cc2c(Nc3cccc(Br)c3)ncnc2cn1 [PD158780]
[5]
  Nrg1 induced neurite outgrowth in cultured hippocampal neurons: decreases
PFC pyramidal neuron
  decrement in current caused by Nrg1: reverses

## COC(=O)[C@@]1(O)C[C@H]2O[C@]1(C)n1c3ccccc3c3c4c(c5c6ccccc6n2c5c31)C(=O)NC4 [K252a, methyl (5R,6R,8R)-6-hydroxy-5-methyl-13-oxo-5,6,7,8,14,15-hexahydro-13H-5,8-epoxy-4b,8a,14-triazadibenzo[b,h]cycloocta[1,2,3,4-jkl]cyclopenta[e]-as-indacene-6-carboxylate]
ErbB4 [6]
  level of ErbB4: significantly increased
PC12-ErbB4-GFP cells [1]; same concentration range (10 nM)
  potentiation of Nrg1-induced neurite outgrowth: potentiated
PC12-ErbB4-GFP cells [4]; K252a at 10 nM
  inhibition of NGF-induced neurite outgrowth: completely inhibited
PC12-ErbB4
  Nrg1 uptake: significantly higher
